Patent US9801843B2, “Self-emulsifying composition of ω3 fatty acid” (priority 2013, dated 2017)

Experiment: Pharmacokinetics in beagles (Test Example 5)
Type: in vivo
Settings: plasma EPA, male beagles fasted, oral, 600 mg EPA-E, baseline-corrected
Method: The composition of Example 14 was orally administered to 6 male beagles (at the age of 2 to 6 years with the body weight of 13 kg, 3 Marshall beagles and 3 Nosan beagles) under fasting conditions, and blood EPA concentration was evaluated. The test animals had been fasted since 18 hours or more before the administration, and each animal was administered with the composition in an amount corresponding to 600 mg of the EPA-E. Blood was collected before the administration, and 0.5, 1, 1.5, 2, 3, 4, 6, 8, and 24 hours after the administration, and plasma was separated to measure plasma EPA concentration by LC/MS/MS (method in which a sample is isolated by liquid chromatography, then subjected to mass spectrometry to conduct separation and measurement thereon). The control group was administered with the EPA-E stock solution encapsulated in a capsule. […] In the calculation of each parameter, correction was made by subtracting the blood EPA concentration before the administration from the measured blood concentration.

AUC0-2: 14.4 µg·h/mL
AUC0-24: 188 µg·h/mL
Cmax: 16600 ng/mL
SMILES: CC/C=C\C/C=C\C/C=C\C/C=C\C/C=C\CCCC(=O)OCC [EPA-E Stock solution, Ethyl eicosapentaenoate ester]
